Results reported in patent US7557144B1, “Modulation of protein expression using carbocyclic aryl alkenoic acid derivatives” (The Johns Hopkins University, priority 2000, dated 2009).

Columns and labels:
Format in all cases: cell-based, human
ΔF508-CFTR/Hsc70 complex = assay: Immunoprecipitation of Hsc70 and coimmunoprecipitation of CFTR from treated IB3-1 cells; details: 2 days, butyrate 1 mM, glycerol 1 M, phenylacetate 1 mM, G418 0.2 mg/ml
Hsp90 = Hsp90 immunoblot of IB3-1 lysates; details: IB3-1 cells, 37° C., 2 days; butyrate 1 mM, glycerol 1 M, phenylacetate 1 mM, G418 0.2 mg/ml
Procedure: (§1) 3. Immunoblot analysis. Whole cell lysates were prepared by solubilization with 2% SDS at 95° C. Protein concentration in the lysates was determined using the Bio-Rad DC assay reagents with bovine plasma g-globulin as a standard (Bio-Rad Laboratories, Hercules, Calif.). Equal amounts of protein was resolved on 5, 7, 8, or 9% SDS-polyacrylamide gels. Proteins were transferred to nitrocellulose, and immunodetection was performed as previously described (25). Nonspecific binding was blocked by incubation of the nitrocellulose with 2% gelatin or 10% nonfat day milk. Primary antisera and secondary antibodies were applied in buffer containing 0.4% BSA overnight at 4° C. and for 1 h at room temperature, respectively. Detection of immunoreactivity was performed with the enhanced chemiluminescence reagent (ECL, Amer-sham) and fluorography. Recombinant bovine Hsc70 ([…]) was purchased from Stressgen Biotechnologies for use in constructing a standard curve of Hsc70 immunoreactivity. Immunoblots containing the bovine Hsc70 were probed with the Hsc70-specific polyclonal antiserum.
(§2) Whether 4-PBA would regulate expression of a number of other molecular chaperones in IB3-1 cells (FIG. 2) was assessed next. […] Hsp90 is required for correct folding and function of a number of cellular proteins (16). […] Hsp70 (Hsp72) expression is induced by heat shock and the presence of denatured proteins within the eukaryotic cell (16). In Escherichia coli, the Hsp70 homologue DnaK and the Hsp40 homologue DnaJ act to promote protein folding (16). Hdj2 is the member of the Hsp40 family that specifically interacts with and regulates the ATPase activity of Hsc70. Hdj2 also interacts with CFTR during CFTR translation (26).
(§3) FIGS. 2A-2E are more specifically explained as follows. […]
(§4) FIGS. 5A-C are explained in more detail as follows. […] Cellular homogenates were prepared in 2% SDS as described in METHODS, and 5 μg of total cellular protein were analyzed by immunoblot for Hsc70 using rabbit polyclonal antiserum, Hsp90, Hsp70, Hsp40 as described above under General Comments. […]

Hsp40 = Hsp40 immunoblot of IB3-1 lysates; details: IB3-1 cells, 37° C., 2 days; butyrate 1 mM, glycerol 1 M, phenylacetate 1 mM, G418 0.2 mg/ml
Procedure: as §1, §2, §3, §4

Hsc70 [1] = assay: Hsc70 immunoblot of IB3-1 whole cell lysates; details: IB3-1 cells, 37° C., 2 days; butyrate 1 mM, glycerol 1 M, phenylacetate 1 mM, G418 0.2 mg/ml
Procedure: as §1

Hsp70 = Hsp70 immunoblot of IB3-1 lysates; details: IB3-1 cells, 37° C., 2 days; butyrate 1 mM, glycerol 1 M, phenylacetate 1 mM, G418 0.2 mg/ml
Procedure: as §1, §2
FIGS. 2A-2E are more specifically explained as follows. […] IB3-1 cells were treated as described for FIG. 1. Immunoblotting with 5 μg of IB3-1 SDS lysate protein was performed as described in the foregoing General Comments.
FIGS. 5A-C are explained in more detail as follows. […] A: IB3-1 cells were incubated at 37° C. for 2 days under indicated conditions. Cellular homogenates were prepared in 2% SDS as described in METHODS, and 5 μg of total cellular protein were analyzed by immunoblot for Hsc70 using rabbit polyclonal antiserum, Hsp90, Hsp70, Hsp40 as described above under General Comments. Con, control. B and C: densitometric analysis of Hsc70 expression (B) and Hsp90, Hsp70, and Hsp40 expression (C) was performed as described for FIG. 1. B: means 6 SE of density in 4 independent experiments.

Hsc70 mRNA = assay: RNase protection assay of Hsc70 mRNA in IB3-1 cells; details: 2 days, 1 mM butyrate, 1 M glycerol
Text: 4. RNase protection. An Hsc70-specific probe for RNase protec-tion was constructed by isolation a 500-bp EcoR I fragment from American Type Culture Collection (ATCC) plasmid 77659 (ATCC, Manassas, Va.) and ligating this fragment into the EcoR I site of pSK(2) (Bluescript, Stratagene, La Jolla, Calif.). The resulting plasmid was sequenced in the Genetics Core Facility at the Johns Hopkins Hospital and found to be identical to sequences in exons 8 and 9 of the human Hsc70 sequence, with sequencing using the T3 primer and T7 primer leading to sense and antisense sequence, respectively. Hybridization probes were synthesized using a Maxiscript T7 kit (Ambion, Austin, Tex.) and [α^32 P]UTP (Amersham or DuPont NEN, Boston, Mass.) according to the Maxiscript protocol. Templates for internal control hybridizations, pTRI-18S and pTRI-cyclophilin A, were purchased from Ambion, and probes were similarly synthesized using the Maxiscript T7 kit. Probes were isolated by acid phenol-chloroform (Ambion) extraction, separated from unincorporated nucleotide by gel filtration (Sephadex G25 RNAspin column, Boehringer-Mannheim), and ethanol-acetate precipitated before resuspension in hybridization buffer. The concentration of radioactivity in the synthesized probes was determined by liquid scintillation.
RNase protection experiments were performed using the Direct Protect RNase protection assay kit (Ambion) according to the manufacturer's protocol. IB3-1 cell lysates were pre-pared in Direct Protect lysis buffer according to the manufacturer's protocol after incubation under the appropriate conditions for 48 h. Probe (50-70 and 5-10 thousands of counts/min for Hsc70 and control, respectively) and cellular RNA were hybridized overnight at 37° C. and digested with RNase cocktail. Protected fragments were resolved by electrophoresis on 5% acrylamide-8 M urea gels and detected by fluorography. Hsc70 mRNA concentration is expressed relative to control (18S or cyclophilin A) hybridization by densitometry (see Densitometric analysis). Results for hybridization of Hsc70 mRNA relative to the two control species were similar and were therefore grouped for data analysis.
FIGS. 3A-B are explained in more detailed as follows. Dose-dependent downregulation of Hsc70 mRNA expression by 4-PBA. A: IB3-1 cells were treated as for FIGS. 1 and 2. Hsc70 mRNA and 18S rRNA (as an internal reference) were measured by Direct Protect RNase protection as described under General Comments. […] P values (shown above respective error bars) were determined by 1-way ANOVA in comparison with control.
FIG. 6 is explained in more detail as follows. […] P values (shown above respective error bars) were determined by 1-way ANOVA in comparison with control.

ΔF508-CFTR [2] = assay: CFTR immunoprecipitation and phosphorylation in IB3-1 cells (bands B and C)
Procedure: CFTR was immunoprecipitated and phosphorylated as described in the Methods. […] Band B CFTR is barely visible consistent with low level ΔF508 expression. The positive control condition, untreated cells grown at 28° C., is in lane 7. Band C has been induced and Band B is relatively depleted consistent with an effect of low temperature on protein trafficking. […] This is consistent with an effect on protein production and on protein trafficking.
Shown in FIGS. 9A and 9B are independent experiments performed as described above. Now the control cells are analyzed in lane 5. Lanes 1-4 show decreasing concentrations of the test compound.
CFTR was detected by immunoprecipitation and phosphorylation. Control cells at 0 and 32 hrs have barely visible CFTR bands B and C. Exposure to low temperature induces band C. 1 mM 4-phenyl-Δ3-transbutenoic acid begins to induce band C and 4 hr and appears maximal by 16 hrs.

ΔF508-CFTR [3] = assay: CFTR bands B and C in primary cystic fibrosis bronchial epithelial cells; details: primary CF bronchial epithelial cells, 48 hr
Procedure: Shown in FIGS. 10A and 10B are results of CF bronchial epithelial cells were harvested from the discarded lungs of a CF patient who underwent therapeutic lung transplant. The genotype is homozygous ΔF508. The methods are as described above. Control cells grown in standard conditions for 0 or 48 hrs are in lanes 6 and 7. Bands B and C are barely detectable. […] The test compound in doses from 1 μM to 1 mM for 48 hr is shown in decreasing order in lanes 2-5.

Hsc70 [4] = assay: Hsc70 immunoblot in primary CF bronchial epithelial cells
Procedure: Shown in FIG. 11 is an experiment in which cells were exposed to control or test conditions or study drug for 48 hrs and then analyzed by immunoblotting for Hsc70, a 70 kD heat shock chaperone protein. […] Hsc70 is not as dramatically down regulated by growth at 27° C.
Shown in FIG. 12 is an experiment performed along lines as shown in FIG. 10A in the same primary cell line. Hsc70 under control conditions is strongly visible in lane 6. Study drug at 1 μM or higher, and low temperature, are associated with more than 50% reduction in Hsc70.

[5] = IB3-1 cells, 1 μM to 100 μM, 48 hr (FIG. 8)

Row | SMILES | amount of immunoreactive CFTR coprecipitated with Hsc70 (ΔF508-CFTR/Hsc70 complex) | Hsp90 immunoreactivity (Hsp90) | Hsp40 immunoreactivity (Hsp40) | Hsc70 immunoreactivity (Hsc70 [1]) | Hsp70 immunoreactivity (Hsp70) | reduction in steady-state Hsc70 mRNA levels (Hsc70 mRNA) [%] | other results
1 | O=C(O)Cc1ccccc1 [Phenylacetate, phenylacetic acid] | little effect | little effect | not affected | little effect | not affected |  | 
2 | OCC(O)CO [glycerol] | decreases | not change | not change | reduction | not change | ~50 | 
3 | O=C(O)CC=Cc1ccccc1 [4-phenyl-Δ3-transbutenoic acid] |  |  |  |  |  |  | Band B and total CFTR (ΔF508-CFTR [2]; [5]): induction; induction of Band C CFTR (ΔF508-CFTR [2]; [5]): dose-dependent induction of Band C; time at which induction of band C begins (ΔF508-CFTR [2]; IB3-1 cells, 1 mM): 4 h; time by which induction of band C appears maximal (ΔF508-CFTR [2]; IB3-1 cells, 1 mM): ≤ 16 h; induction of CFTR bands B and C (ΔF508-CFTR [2]; IB3-1 cells, independent experiments (FIGS. 9A and 9B)): dose-dependent induction of bands B and C; effectiveness compared with 4-PBA (ΔF508-CFTR [2]; data of Examples 4-12): much more effective at lower concentrations; concentration giving maximum induction of bands B and C (ΔF508-CFTR [3]; doses 1 μM to 1 mM): 1 mM; induction of CFTR bands B and C (ΔF508-CFTR [3]; homozygous ΔF508, 1 μM): dramatic induction of bands B and C; reduction in Hsc70 (Hsc70 [4]; 1 μM or higher (FIG. 12)): more than 50%; reduction in Hsc70 (Hsc70 [4]; 100 μM and 1 mM, 48 hrs, semi-quantitative blot (FIG. 11)): ≥ 50%
4 | CCCC(=O)O [butyrate, butyric acid] |  |  |  |  |  | ~50 | 
